PMC8151276, “An Integrated Approach toward NanoBRET Tracers for Analysis of GPCR Ligand Engagement” (Molecules, 2021)
Several values for one entry are separate records, joined by “and”; a condition that tells them apart may be missing. Identical values can stand only once. Like-named read-outs stand apart in the source and are kept apart here.

Tests used:
Format in all cases: binding
ADRA2C = target: T1, ADRA2C (Homo sapiens, UniProt P18825); test: NanoBRET screen HiBiT-ADRA2C in HEK293
T1 construct: purchased Promega (in-house HiBiT-GPCR construct library, NanoBRET)
T1 sequence (P18825 1-462): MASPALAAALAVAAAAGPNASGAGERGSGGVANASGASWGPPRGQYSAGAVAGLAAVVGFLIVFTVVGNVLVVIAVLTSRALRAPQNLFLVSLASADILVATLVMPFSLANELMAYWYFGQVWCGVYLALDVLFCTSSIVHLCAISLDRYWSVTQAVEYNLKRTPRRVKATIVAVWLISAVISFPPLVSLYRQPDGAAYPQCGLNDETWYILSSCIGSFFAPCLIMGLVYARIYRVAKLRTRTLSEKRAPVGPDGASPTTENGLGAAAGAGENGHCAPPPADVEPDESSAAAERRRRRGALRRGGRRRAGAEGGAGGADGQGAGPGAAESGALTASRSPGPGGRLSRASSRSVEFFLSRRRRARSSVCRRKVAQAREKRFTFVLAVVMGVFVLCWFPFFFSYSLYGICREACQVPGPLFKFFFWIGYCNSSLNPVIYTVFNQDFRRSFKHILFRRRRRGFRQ
Protocol: Each tracer candidate was screened across the entire library of HiBiT-GPCR constructs using NanoBRET as the detection modality. As depicted in Figure 4A, the specificity of interactions was evaluated through decrease in BRET due to competitive displacement of a bound tracer by excess parental compound. Each tracer was analyzed for binding to each HiBiT-GPCR fusion in the absence and in the presence of competing parental compound. Briefly, HEK293 cells were transfected with HiBiT-GPCR constructs diluted into promoterless DNA to reduce expression and maximize translocation to the cell surface. Each tracer candidate was then screened at concentrations of 1 μM and 0.1 μM across cells expressing these fusions. Cells were treated for 1.5 h with tracer either alone or in the presence of 20 μM competing parental compound (i.e., control). BRET was measured upon addition of purified LgBiT and subsequent complementation with HiBiT genetically fused to a GPCR. The specificity of interactions was assessed through a decrease in BRET signal due to competitive displacement of the bound tracer. To further gauge the robustness of these interactions, the fold response over the control (i.e., BRETtracer/BRETcontrol) was calculated. We chose a 1.5-fold response, which translates to ≥7-fold signal over noise as the minimal threshold required to score an interaction as positive. […]. Below we highlight the screening results obtained for our exemplary fluorescent tracers based on Clozapine, Amitriptyline and AZD1283.
HiBiT-GPCR DNA constructs were diluted in 10 mM Tris pH 8 to a final concentration of 0.01 μg/μL, arrayed in 96-well plates and stored at −20 °C. For transfection, HEK293 cells were suspended in Opti-MEM (without phenol red) supplemented with 2% fetal bovine serum (Seradigm) and 100 units/mL penicillin–streptomycin (Gibco) at a final concentration of 220,000 cells/mL and dispensed into white 96-well plates at 90 μL/well. Subsequent transfections and screens were carried using an Agilent Bravo Automated Liquid Handling Platform. First, the 96-well HiBiT DNA arrays were diluted 25-fold in Opti-MEM (without serum or phenol red) to a final concentration of 0.0004 μg/μL and 20 μL of the diluted DNAs were transferred into new 96-well plates. Next, promoterless carrier DNA (1 μg/μL) was diluted 25-fold (0.04 μg/μL) and then dispensed into the diluted arrays at 20 μL/well. Following brief mixing, Viafect transfection reagent (Promega) diluted 16-fold into Opti-MEM was dispensed into the plates at 40 μL/well. After mixing by pipetting, plates were incubated for 10 min on the pipetting station deck. The DNA-transfection reagent complexes were then added to plates containing cells. To facilitate the screen, 10 μL of DNA-transfection reagent complexes were added in duplicates to the top 4 and bottom 4 rows, resulting in two identical 48-well arrays per plate. Plates with transfected cells were incubated for 18–20 h at 37 °C/5% CO2. A screen of each tracer across the entire library using two different concentrations requires duplicate plates of transfected cells. Depending on the number of tracers being screened, transfections can be scaled up using the same ratios. The next day, for each tracer, four 20× screening solutions in tracer dilution buffer (Promega) were prepared: two duplicates at final concentration of 20 μM and two duplicates at a final concentration of 2 μM. A competing unmodified compound was added to one of each duplicate at a final concentration of 400 μM. The four resulting solutions were diluted 4-fold in Opti-MEM without serum or phenol red to generate 5× solutions (5 µM and 0.5 µM tracer +/− 100 μM competing compound). To screen the library, a BioTek MultiFlo FX liquid dispenser was used to dispense 22.5 µL of tracer solution to the top 4 rows and 22.5 µL tracer + competing compound solution to the 4 bottom rows. Plates were briefly mixed on an orbital shaker and incubated for 1.5 h at room temperature. […]

CHRM1 = target: T2, CHRM1 (Homo sapiens, UniProt P11229); test: NanoBRET screen HiBiT-CHRM1 in HEK293
T2 construct: purchased Promega (in-house HiBiT-GPCR construct library, NanoBRET)
T2 sequence (P11229 1-460): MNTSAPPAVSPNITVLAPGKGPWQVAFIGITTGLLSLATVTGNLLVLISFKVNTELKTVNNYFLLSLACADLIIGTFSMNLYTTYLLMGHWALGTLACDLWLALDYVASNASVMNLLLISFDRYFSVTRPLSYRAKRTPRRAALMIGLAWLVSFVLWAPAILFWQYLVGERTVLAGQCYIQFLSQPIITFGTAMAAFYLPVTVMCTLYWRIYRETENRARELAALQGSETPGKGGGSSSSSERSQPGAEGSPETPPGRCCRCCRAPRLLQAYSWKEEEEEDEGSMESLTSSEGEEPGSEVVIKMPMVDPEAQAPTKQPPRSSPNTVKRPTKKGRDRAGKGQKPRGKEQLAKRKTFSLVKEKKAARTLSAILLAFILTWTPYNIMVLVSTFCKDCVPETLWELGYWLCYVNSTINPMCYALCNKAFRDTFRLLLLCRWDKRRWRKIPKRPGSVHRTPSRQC

HRH1 = target: T3, HRH1 (Homo sapiens, UniProt P35367); test: NanoBRET screen HiBiT-HRH1 in HEK293
T3 construct: purchased Promega (in-house HiBiT-GPCR construct library, NanoBRET)
T3 sequence (P35367 whole entry): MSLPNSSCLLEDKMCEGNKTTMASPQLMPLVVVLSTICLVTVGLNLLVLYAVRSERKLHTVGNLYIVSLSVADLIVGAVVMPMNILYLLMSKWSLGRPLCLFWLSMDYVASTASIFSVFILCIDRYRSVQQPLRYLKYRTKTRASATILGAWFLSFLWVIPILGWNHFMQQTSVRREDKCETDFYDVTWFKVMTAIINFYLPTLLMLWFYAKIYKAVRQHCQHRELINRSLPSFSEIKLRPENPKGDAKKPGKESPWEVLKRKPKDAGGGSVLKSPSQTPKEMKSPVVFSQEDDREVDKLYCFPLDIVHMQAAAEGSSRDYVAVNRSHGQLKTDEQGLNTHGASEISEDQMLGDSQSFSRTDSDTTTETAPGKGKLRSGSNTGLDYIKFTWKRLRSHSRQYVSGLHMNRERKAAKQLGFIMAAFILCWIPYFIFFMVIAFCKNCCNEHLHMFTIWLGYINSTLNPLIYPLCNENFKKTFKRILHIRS

CHRM3 = target: T4, CHRM3 (Homo sapiens, UniProt P20309); test: NanoBRET screen HiBiT-CHRM3 in HEK293
T4 construct: purchased Promega (in-house HiBiT-GPCR construct library, NanoBRET)
T4 sequence (P20309 whole entry): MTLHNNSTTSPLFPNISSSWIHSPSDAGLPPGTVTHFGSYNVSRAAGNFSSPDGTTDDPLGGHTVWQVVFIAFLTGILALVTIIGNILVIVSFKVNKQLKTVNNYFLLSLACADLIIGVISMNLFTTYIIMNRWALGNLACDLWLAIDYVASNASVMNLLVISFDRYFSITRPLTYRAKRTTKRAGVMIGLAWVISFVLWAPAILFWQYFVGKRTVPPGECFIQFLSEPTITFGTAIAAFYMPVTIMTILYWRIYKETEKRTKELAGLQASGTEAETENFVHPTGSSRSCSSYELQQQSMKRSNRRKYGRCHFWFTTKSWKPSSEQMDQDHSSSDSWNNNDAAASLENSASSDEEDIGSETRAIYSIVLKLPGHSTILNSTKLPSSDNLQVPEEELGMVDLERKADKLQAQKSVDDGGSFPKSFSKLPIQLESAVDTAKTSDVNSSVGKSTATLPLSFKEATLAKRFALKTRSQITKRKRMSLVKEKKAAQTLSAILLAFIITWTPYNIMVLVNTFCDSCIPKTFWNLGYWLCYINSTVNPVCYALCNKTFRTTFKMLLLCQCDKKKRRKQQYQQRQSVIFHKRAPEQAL

CN1CCN(C2=Nc3cc(Cl)ccc3Nc3ccc(CNC(=O)CCOCCOCCOCCOCCNC(=O)CCc4ccc5n4[B-](F)(F)[N+]4=C(c6ccc[nH]6)C=CC4=C5)cc32)CC1 [Clozapine-b-2-NB590]
NanoBRET Fold Response (ADRA2C; ADRA2C, 0.1μM tracer): 1.25
NanoBRET Fold Response (ADRA2C; ADRA2C, 1μM tracer): 1.67

CN(C)CCC=C1c2ccccc2CCc2ccc(C(=O)NCCNC(=O)CCOCCOCCOCCOCCNC(=O)CCc3ccc4n3[B-](F)(F)[N+]3=C(c5ccc[nH]5)C=CC3=C4)cc21 [Amitriptyline-b-2-NB590]
NanoBRET Fold Response (ADRA2C; tracer at 0.1μM, listed as amitriptyline-b-2-NB590): 1.08
NanoBRET Fold Response (ADRA2C; tracer at 1μM, listed as amitriptyline-b-2-NB590): 1.08

CCOC(=O)c1cc(C#N)c(N2CCC(C(=O)NS(=O)(=O)Cc3ccccc3/C=C/C(=O)NCCNC(=O)CCc3ccc4n3[B-](F)(F)[N+]3=C(c5ccc[nH]5)C=CC3=C4)CC2)nc1C [AZD1283-1-NB590]
NanoBRET Fold Response (CHRM1; CHRM1, 0.1μM): 1.01
NanoBRET Fold Response (CHRM1; CHRM1, 1μM): 1.04
NanoBRET Fold Response (HRH1; HRH1, 0.1μM): 1.05
NanoBRET Fold Response (HRH1; HRH1, 1μM): 0.92
NanoBRET Fold Response (ADRA2C; ADRA2C, 0.1μM): 1.05
NanoBRET Fold Response (ADRA2C; ADRA2C, 1μM): 1.04
NanoBRET Fold Response (CHRM3; CHRM3, 0.1μM): 1.07
NanoBRET Fold Response (CHRM3; CHRM3, 1μM): 1.09

CC(C)N(CC[C@H](c1ccccc1)c1cc(CCNC(=O)CCOCCOCCOCCOCCNC(=O)CCc2ccc3n2[B-](F)(F)[N+]2=C(c4ccc[nH]4)C=CC2=C3)ccc1O)C(C)C [Tolterodine-2-NB590]
NanoBRET Fold Response (CHRM1): 1.59 and 2.16
NanoBRET Fold Response (HRH1; HRH1, tracer 0.1μM): 1.08
NanoBRET Fold Response (HRH1; HRH1, tracer 1μM): 1.58
NanoBRET Fold Response (ADRA2C; ADRA2C, tracer 0.1μM): 0.85
NanoBRET Fold Response (ADRA2C; ADRA2C, tracer 1μM): 1.04
NanoBRET Fold Response (CHRM3; CHRM3, tracer 0.1μM): 1.67
NanoBRET Fold Response (CHRM3; CHRM3, tracer 1μM): 1.52

CC(C)N(CC[C@H](c1ccccc1)c1cc(CCNC(=O)c2ccc(CNC(=O)CCc3ccc4n3[B-](F)(F)[N+]3=C(c5ccc[nH]5)C=CC3=C4)cc2)ccc1O)C(C)C [Tolterodine-BZ-NB590]
NanoBRET Fold Response (CHRM1): 2.14 and 2.47
NanoBRET Fold Response (HRH1; HRH1, tracer 0.1μM): 0.99
NanoBRET Fold Response (HRH1; HRH1, tracer 1μM): 1.10
NanoBRET Fold Response (ADRA2C; ADRA2C, tracer 0.1μM): 1.09
NanoBRET Fold Response (ADRA2C; ADRA2C, tracer 1μM): 1.11
NanoBRET Fold Response (CHRM3; CHRM3, tracer 0.1μM): 1.18
NanoBRET Fold Response (CHRM3; CHRM3, tracer 1μM): 1.25

O=C(CCOCCOCCOCCOCCNC(=O)CCc1ccc2n1[B-](F)(F)[N+]1=C(c3ccc[nH]3)C=CC1=C2)NCCCN1CCN(C2=Nc3ccccc3Oc3ccc(Cl)cc32)CC1 [Loxapine-a-2-NB590]
NanoBRET Fold Response (CHRM1): 0.90 and 1.14
NanoBRET Fold Response (HRH1): 3.64 and 4.76
NanoBRET Fold Response (ADRA2C; ADRA2C, tracer 0.1μM): 1.13
NanoBRET Fold Response (ADRA2C; ADRA2C, tracer 1μM): 1.54
NanoBRET Fold Response (CHRM3): 0.96 and 1.07

CN1CCN(C2=Nc3cc(Cl)ccc3N(CC(=O)NCCOCCOCCOCCOCCNC(=O)CCc3ccc4n3[B-](F)(F)[N+]3=C(c5ccc[nH]5)C=CC3=C4)c3ccccc32)CC1 [Clozapine-c-2-NB590]
NanoBRET Fold Response (ADRA2C; ADRA2C, 0.1μM tracer): 1.05
NanoBRET Fold Response (ADRA2C; ADRA2C, 1μM tracer): 1.49

CN(C)CCC=C1c2ccccc2CCc2ccc(C(=O)NCCNC(=O)CCOCCOCCOCCOCCNC(=O)CCc3ccc4n3[B-](F)(F)[N+]3=C(c5ccc[nH]5)C=CC3=C4)cc21 [Amitriptyline-a-2-NB590]
NanoBRET Fold Response (ADRA2C; tracer at 1μM): 1.37
